Experimental data published in US7037644B1, “Means and methods for monitoring non-nucleoside reverse transcriptase inhibitor antiretroviral therapy and guiding therapeutic decisions in the treatment of HIV/AIDS” (ViroLogic, Inc., priority 1998, dated 2006).
“And” between values parts separate entries of the source, which are not always exact repeats. Equal entries are not always repeated. “Also recorded” adds a separate entry of the source.

How the values were obtained:
Assay type in all cases: cell-based, HIV-1
[1] = tested on: RTV-302, patient 97-302 (RT K103N, I135M, T200A, P225H); assay: Phenotypic susceptibility assay (patient RTV); details: patient virus RTV-302
Procedure: The resistance test vectors containing a functional luciferase gene cassette were constructed and host cells were transfected with the resistance test vector DNA. The resistant test vectors contained patient-derived reverse transcriptase and protease sequences that were either susceptible or resistant to the antiretroviral agents, such as nucleoside reverse transcriptase inhibitors, non-nucleoside reverse transcriptase inhibitors and protease inhibitors. […] The IC50 values were determined by plotting percent drug inhibition vs. log10 drug concentration.
Host cells were seeded in 10-cm-diameter dishes and were transfected several days after plating with resistance test vector plasmid DNA and the envelope expression vector. […] HIV capsid protein (p24) levels in the harvested cell culture media were determined by an EIA method as described by the manufacturer (SIAC; Frederick, Md.). […] The inhibitory effect of the drug was determined using the following equation: % luciferase inhibition=1−(RLUluc [drug]÷RLUluc)×100 where RLUluc [drug] is the relative light unit of luciferase activity in infected cells in the presence of drug and RLUluc is the Relative Light Unit of luciferase activity in infected cells in the absence of drug. […]
A resistance test vector was constructed as described in example 1 from a patient sample designated as 97-302. […] An IC50 was determined for each drug tested. […]

G190S-RTV = assay: Phenotypic susceptibility assay (site directed mutant RTV); details: for change in susceptibility (fold, IC50) vs wild type control RTV: G190S alone, below 1 = increased susceptibility; for change in susceptibility: serine at position 190, no other NNRTI mutations
Description: (§1) The resistance test vectors containing a functional luciferase gene cassette were constructed and host cells were transfected with the resistance test vector DNA. The resistant test vectors contained patient-derived reverse transcriptase and protease sequences that were either susceptible or resistant to the antiretroviral agents, such as nucleoside reverse transcriptase inhibitors, non-nucleoside reverse transcriptase inhibitors and protease inhibitors. The resistance test vector viral particles produced by transfecting the resistance test vector DNA into host cells, either in the presence or absence of protease inhibitors, were used to infect target host cells grown either in the absence of NRTI or NNRTI or in the presence of increasing concentrations of the drug. The amount of luciferase activity produced in infected target host cells in the presence of drug was compared to the amount of luciferase produced in infected target host cells in the absence of drug. Drug resistance was measured as the amount of drug required to inhibit by 50% the luciferase activity detected in the absence of drug (inhibitory concentration 50%, IC50). The IC50 values were determined by plotting percent drug inhibition vs. log10 drug concentration.
(§2) Host cells were seeded in 10-cm-diameter dishes and were transfected several days after plating with resistance test vector plasmid DNA and the envelope expression vector. Transfections were performed using a calcium-phosphate precipitation procedure. The cell culture media containing the DNA precipitate was replaced with fresh medium, from one to 24 hours, after transfection. Cell culture media containing resistance test vector viral particles was harvested one to four days after transfection and was passed through a […] filter before being stored at […]. HIV capsid protein (p24) levels in the harvested cell culture media were determined by an EIA method as described by the manufacturer (SIAC; Frederick, Md.). Before infection, target cells (293 and 293/T) were plated in cell culture media. Control infections were performed using cell culture media from mock transfections (no DNA) or transfections containing the resistance test vector plasmid DNA without the envelope expression plasmid. One to three or more days after infection the media was removed and cell lysis buffer (Promega) was added to each well. Cell lysates were assayed for luciferase activity (FIG. 3). The inhibitory effect of the drug was determined using the following equation: % luciferase inhibition=1−(RLUluc [drug]÷RLUluc)×100 where RLUluc [drug] is the relative light unit of luciferase activity in infected cells in the presence of drug and RLUluc is the Relative Light Unit of luciferase activity in infected cells in the absence of drug. IC50 values were obtained from the sigmoidal curves that were generated from the data by plotting the percent inhibition of luciferase activity vs. the log10 drug concentration. The drug inhibition curves are shown in (FIG. 3).
Resistance test vectors were constructed containing the G190S and G190A mutations. Mutations were introduced into the resistance test vector using the mega-primer PCR method for site-directed mutagenesis (Sakar and Sommar, Ibid.) Resistance test vectors containing the G190S or G190A mutations (G190S-RTV, or G190A-RTV) were tested using the phenotypic susceptibility assay and the results were compared to that of a genetically defined resistance test vector that was wild type at position G190. […]

G190A-RTV = assay: as above; details: for change in susceptibility: alanine at position 190, no other NNRTI mutations
Description: as §1
as §2, with “IC50 values were obtained from the sigmoidal curves that were generated from the data by plotting the percent inhibition of luciferase activity vs. the log10 drug concentration. The drug inhibition curves are shown in (FIG. 3).” left out

Y188L-RTV = assay: as above; details: for loss of susceptibility (fold, IC50) vs wild type control RTV: Y188L alone; for change in susceptibility: mutation at codon 188
Description: as §1, §2
The Y188L mutation was introduced into the resistance test vector using the mega-primer method for site-directed mutagenesis (Sakar and Sommar, Ibid.). A resistance test vector containing the Y188L mutation (Y188L-RTV) was then tested using the phenotypic assay described earlier and the results were compared to those determined using a genetically defined resistance test vector that was wild type at position 188. We determined the pattern of phenotypic susceptibility to the NNRTIs, delavirdine, nevirapine and efavirenz, in the Y188L-RTV. […] The approximate 100-fold loss of susceptibility to efavirenz was not as high as had been previously reported.

E138A-RTV = assay: as above; details: E138A alone
Description: as §1, §2
(§3) The E138A mutation alone and in combination with Y188L was introduced into resistance test vectors using the mega-primer method for site-directed mutagenesis (Sakar and Sommar, Ibid.). Resistance rest vectors containing the E138A mutation (E138A-RTV) or he E138 mutation along with the […] mutation (E138A-Y188L-RTV) were then tested using the phenotypic assay described earlier and the results were compared to those determined using a genetically defined resistance test vector that was wild type at positions 188 and 138. We determined the pattern of phenotypic susceptibility to the NNRTIs, delavirdine, nevirapine and efavirenz, in the E138A-RTV, Y188L-RTV and E138-Y188L-RTV.

E138A-Y188L-RTV = assay: as above; details: for loss of susceptibility (fold, IC50) vs wild type control RTV: E138A and Y188L; for change in susceptibility: mutations at codons 138 and 188
Description: as §1, §2, §3

| Compound | change in susceptibility [1] | change in susceptibility (fold, IC50) vs wild type control RTV (G190S-RTV) | change in susceptibility (G190S-RTV) | change in susceptibility (G190A-RTV) | change in susceptibility (G190A-RTV; listed as delviridine) | loss of susceptibility (fold, IC50) vs wild type control RTV (Y188L-RTV) | change in susceptibility (Y188L-RTV) | change in susceptibility (fold, IC50) vs wild type control RTV (E138A-RTV) | loss of susceptibility (fold, IC50) vs wild type control RTV (E138A-Y188L-RTV) | change in susceptibility (E138A-Y188L-RTV) | change in susceptibility (fold, IC50) vs wild type control RTV (G190A-RTV; G190A alone) |
| --- | --- | --- | --- | --- | --- | --- | --- | --- | --- | --- | --- |
| CC(C)Nc1cccnc1N1CCN(C(=O)c2cc3cc(NS(C)(=O)=O)ccc3[nH]2)CC1 [delavirdine] | modest decrease; also recorded: reduced susceptibility | 0.5 fold | increase | increase | increased susceptibility | 9 fold | slight decrease | 1.6 fold | 75 fold | moderate decrease |  |
| O=C1Nc2ccc(Cl)cc2[C@@](C#CC2CC2)(C(F)(F)F)O1 [efavirenz] |  | 8 fold and 7.6 fold |  |  |  | 109 fold and ~100 fold and 110 fold | significant decrease | 1.4 fold | 88 fold | moderate decrese; also recorded: moderate decrease | 8 fold |
| Cc1ccnc2c1NC(=O)c1cccnc1N2C1CC1 [nevirapine] | significant decrease; also recorded: reduced susceptibility | 75 fold | decrease | decrease |  | greater than 800 fold | substantial decrease | 1.3 fold | greater than 800 fold | substantial decrease |  |
